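Five concentrations, 48 hours, 96-well plates. TGI: concentration producing complete growth inhibition.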
Columns and labels:
Test in all cases: DTP human tumour cell line panel, 48 h
[1] = tested on: 786-0 renal
[2] = tested on: A498 renal
[3] = tested on: A549 NSCLC
[4] = tested on: ACHN renal
[5] = tested on: CCRF-CEM leukemia
[6] = tested on: COLO 205 colon
[7] = tested on: DLD-1 colon
[8] = tested on: DMS 114 small cell lung
[9] = tested on: DMS 273 small cell lung
[10] = tested on: EKVX NSCLC
[11] = tested on: HCC-2998 colon
[12] = tested on: HCT-116 colon
[13] = tested on: HCT-15 colon
[14] = tested on: HL-60(TB) leukemia
[15] = tested on: HOP-18 NSCLC
[16] = tested on: HOP-62 NSCLC
[17] = tested on: HT29 colon
[18] = tested on: IGROV1 ovarian
[19] = tested on: K-562 leukemia
[20] = tested on: KM12 colon
[21] = tested on: KM20L2 colon
[22] = tested on: LOX IMVI melanoma
[23] = tested on: LXFL 529 NSCLC
[24] = tested on: M14 melanoma
[25] = tested on: M19-MEL melanoma
[26] = tested on: MALME-3M melanoma
[27] = tested on: MOLT-4 leukemia
[28] = tested on: NCI-H226 lung
[29] = tested on: NCI-H23 lung
[30] = tested on: NCI-H460 lung
[31] = tested on: NCI-H522 lung
[32] = tested on: OVCAR-3 ovarian
[33] = tested on: OVCAR-4 ovarian
[34] = tested on: OVCAR-5 ovarian
[35] = tested on: OVCAR-8 ovarian
[36] = tested on: RPMI-8226 leukemia
[37] = tested on: RXF 393 renal
[38] = tested on: SF-268 CNS
[39] = tested on: SF-295 CNS
[40] = tested on: SF-539 CNS
[41] = tested on: SK-MEL-2 melanoma
[42] = tested on: SK-MEL-28 melanoma
[43] = tested on: SK-MEL-5 melanoma
[44] = tested on: SK-OV-3 ovarian
[45] = tested on: SN12C renal
[46] = tested on: SNB-19 CNS
[47] = tested on: SNB-75 CNS
[48] = tested on: SR leukemia
[49] = tested on: SW-620 colon
[50] = tested on: TK-10 renal
[51] = tested on: U251 CNS
[52] = tested on: UACC-62 melanoma
[53] = tested on: UO-31 renal
[54] = tested on: XF 498 CNS
[55] = tested on: CAKI-1 renal
[56] = tested on: HOP-92 NSCLC
[57] = tested on: RXF-631 renal
[58] = tested on: SNB-78 CNS

## COc1cccc(-c2cc(=O)c3ccccc3[nH]2)c1
[1]
  TGI: > 100 µM
[2]
  TGI: > 100 µM
[3]
  TGI: > 100 µM
[4]
  TGI: > 100 µM
[5]
  TGI: > 100 µM
[6]
  TGI: > 38.2 µM
[7]
  TGI: > 100 µM
[8]
  TGI: > 59.3 µM
[9]
  TGI: > 100 µM
[10]
  TGI: > 100 µM
[11]
  TGI: 18.1 µM
[12]
  TGI: > 100 µM
[13]
  TGI: > 100 µM
[14]
  TGI: 8.57 µM
[15]
  TGI: > 100 µM
[16]
  TGI: > 100 µM
[17]
  TGI: > 100 µM
[18]
  TGI: > 100 µM
[19]
  TGI: > 100 µM
[20]
  TGI: > 48.4 µM
[21]
  TGI: 27.1 µM
[22]
  TGI: > 100 µM
[23]
  TGI: > 100 µM
[24]
  TGI: > 100 µM
[25]
  TGI: > 100 µM
[26]
  TGI: > 100 µM
[27]
  TGI: > 100 µM
[28]
  TGI: > 29.6 µM
[29]
  TGI: > 100 µM
[30]
  TGI: > 100 µM
[31]
  TGI: > 34.2 µM
[32]
  TGI: > 31.6 µM
[33]
  TGI: > 100 µM
[34]
  TGI: > 100 µM
[35]
  TGI: > 72.7 µM
[36]
  TGI: > 100 µM
[37]
  TGI: 21 µM
[38]
  TGI: > 100 µM
[39]
  TGI: 14.8 µM
[40]
  TGI: 18.7 µM
[41]
  TGI: > 100 µM
[42]
  TGI: > 100 µM
[43]
  TGI: > 100 µM
[44]
  TGI: > 100 µM
[45]
  TGI: > 100 µM
[46]
  TGI: > 100 µM
[47]
  TGI: > 100 µM
[48]
  TGI: > 100 µM
[49]
  TGI: > 100 µM
[50]
  TGI: > 100 µM
[51]
  TGI: > 100 µM
[52]
  TGI: > 100 µM
[53]
  TGI: > 100 µM
[54]
  TGI: 72.3 µM

## CCSc1c2ccccc2c(-c2nc(F)nc(F)n2)n1CCc1ccccc1
[1]
  TGI: > 100 µM
[2]
  TGI: > 100 µM
[3]
  TGI: > 100 µM
[4]
  TGI: > 100 µM
[55]
  TGI: > 100 µM
[5]
  TGI: > 100 µM
[6]
  TGI: > 100 µM
[8]
  TGI: > 100 µM
[9]
  TGI: > 100 µM
[10]
  TGI: > 100 µM
[11]
  TGI: > 100 µM
[12]
  TGI: > 100 µM
[13]
  TGI: > 100 µM
[14]
  TGI: > 100 µM
[16]
  TGI: > 100 µM
[56]
  TGI: > 100 µM
[17]
  TGI: > 100 µM
[19]
  TGI: > 100 µM
[20]
  TGI: > 100 µM
[21]
  TGI: > 100 µM
[22]
  TGI: > 100 µM
[23]
  TGI: > 100 µM
[24]
  TGI: > 100 µM
[25]
  TGI: > 100 µM
[26]
  TGI: > 100 µM
[27]
  TGI: > 100 µM
[28]
  TGI: > 100 µM
[29]
  TGI: > 100 µM
[30]
  TGI: > 100 µM
[31]
  TGI: > 100 µM
[32]
  TGI: > 100 µM
[33]
  TGI: > 100 µM
[34]
  TGI: > 100 µM
[36]
  TGI: > 100 µM
[37]
  TGI: > 100 µM
[57]
  TGI: > 100 µM
[38]
  TGI: > 100 µM
[39]
  TGI: > 100 µM
[40]
  TGI: > 100 µM
[41]
  TGI: > 100 µM
[42]
  TGI: > 100 µM
[45]
  TGI: > 100 µM
[46]
  TGI: > 100 µM
[58]
  TGI: > 100 µM
[48]
  TGI: > 100 µM
[49]
  TGI: > 100 µM
[50]
  TGI: > 100 µM
[51]
  TGI: > 100 µM
[53]
  TGI: > 100 µM
[54]
  TGI: > 100 µM
